Data on 33 compounds can be found in a melting point compilation (Tetko et al.; mined from patent text by program, amines drawn as free bases though some values may be those of a salt).

One may read the melting point as the temperature, or range, at which the solid turns liquid.

As for `Cc1ccc(N2C(=O)C(O)=C(C(=O)c3ccc(C(C)C)cc3)C2c2ccc(N(C)C)cc2)nn1` (stereo not drawn), the melting point fell in the range of 283 to 286 °C.

Regarding `O=C1N(C(c2ccccc2)c2ccccc2)c2ccccc2C12COc1ccc(-c3cccnc3)cc12` (stereo not drawn), the melting point was 204 to 207 °C.

In the case of `Cn1c(-c2ccccc2)nc2ncnn2c1=S`, the melting point is 246 to 248 °C.

Consider `COc1ccc(S(=O)(=O)N2C(=O)C(c3ccccc3OC)(N3CCC[C@H]3C(=S)N(C)C)c3cc(Cl)ccc32)c(OC)c1` (stereo partly drawn), for which the melting point was found to be 164 °C.

In turn, `CC(C)(C)OC(=O)COc1ccc(-c2c(Cl)c(CN3C(=O)CCC3=O)nc3sc4c(c23)CCSC4)cc1` registered a melting point of 191 to 192 °C.

Compound `CCCc1c(C(=O)C(C)C)c2ccc(C(N)=O)cc2n1Cc1ccccc1C` yielded a melting point of 190 to 191 °C.

On to `CCCNC1CN(C(=O)Nc2ccc(C(F)(F)F)cc2)N=C1c1ccc(OC(F)F)c(C)c1` (stereo not drawn), for which the melting point fell in the range of 90 to 92 °C.

In turn, `COc1cccc2c(Oc3ccccc3)cccc12` registered a melting point of 65 to 66 °C.

In turn, `Cc1ccc(-c2ccc(S(C)(=O)=O)cc2)n1CC(C)(C)S` had a melting point of 124 to 126 °C.

Compound `CCN(CC)C(=S)NC1C=C2c3cccc4c3c(cn4CC)CC2N(C)C1` (stereo not drawn) gave a melting point of 108 °C.

`COc1cccc2c3c([nH]c12)C(=O)N=NC3=O` had a melting point greater than 260 °C.

`COC(=O)c1cc(Cl)ccc1-n1c(C)nnc1CCl` registered a melting point of 123 to 124 °C.

In the case of `Nc1ccc2c(c1)OCC21C(=O)N(CC2CCCO2)c2ccccc21` (stereo not drawn), the melting point is 71 to 74 °C.

In the case of `CC(C1OCCO1)N(C)C(=O)Nc1nnc(S(=O)(=O)N(C)C)s1` (stereo not drawn), the melting point fell in the range of 194 to 196 °C.

`O=C(NC(Cc1ccc(OCc2ccccc2)cc1)C(=O)O)c1ccc2nc(-c3ccc(Cl)cc3)cn2c1` (stereo not drawn) registered a melting point of 278 to 280 °C.

Compound `CNC(Cc1c[nH]c2c(Cl)cccc12)C(=O)O` (stereo not drawn) showed a melting point of 208 to 211 °C.

For `CC(C)[C@H](NC(=O)OC(C)(C)C)C(=O)NCCCN1CCN(CCCNc2cccc3c2C(=O)c2ccccc2C3=O)CC1`, the melting point is 108 °C.

In turn, `N#CC1CCN(C(c2ccccc2)(c2ccccc2)c2ccccc2)CC1` showed a melting point of 206 °C.

The compound `O=C(OCCN1CCN(c2ccc(Cl)cc2)CC1)c1sccc1Nc1ccnc2c(C(F)(F)F)cccc12` had a melting point of 155 °C.

As to `CCONCCCC=C1C(=O)CC(c2ccc(Cl)cc2)CC1=O` (stereo not drawn), the melting point worked out at 77 °C.

`CC(C)Nc1nc2cc(Cl)c(Cl)cc2n1C1OC(CO)C(O)C1O` (stereo not drawn): the melting point lay within 197 to 199 °C.

In the case of `CC(C)CC(=O)Nc1cccc(-c2ccnc3c(-c4cccc(C#N)c4)cnn23)c1`, the melting point lay in the range of 166 to 167 °C.

Regarding `NC(=O)c1c(Cl)c(-c2ccccc2)n2c1CN(S(=O)(=O)c1ccc(-c3ccon3)s1)CC2`, the melting point lay within 186 to 190 °C.

With `CN1C(=O)CC(c2ccc(-c3ccc(F)cc3)cc2)C1C(O)c1ccc(-c2ccccc2)s1` (stereo not drawn), the melting point fell in the range of 191 to 193 °C.

Regarding `CCCCCC(=O)OCC(=O)C1C(C)CC2C3=C(C(O)CC21C)C1(C)C=CC(=O)C=C1C(F)C3` (stereo not drawn), the melting point is 155 °C.

`Cc1cccc(Cl)c1N1C(=O)CON(C)C1=S` yielded a melting point of 176 to 178 °C.

Turning to `COC(=O)Cc1ccc(NC(=O)c2sc3ccc(OC)cc3c2OC(C)C)cc1`, the melting point lay in the range of 111 to 113 °C.

Compound `CCOC(=O)CCCNc1ccc2oc(-c3ccc4ccc(Cl)cc4n3)cc2c1` had a melting point of 154 to 155 °C.

With `COc1cc(OC(C)(C)C(=O)O)c(-c2cccs2)cc1/C=C/C(=O)c1ccc(NS(C)(=O)=O)cc1`, the melting point lay in the range of 181 to 183 °C.

Regarding `CC(C)(C)C1=CC(=Nc2cc(C(=O)O)ccc2O)C=C(C(C)(C)C)C1=O`, the melting point is 275 to 276 °C.

The compound `Oc1c(Cl)cc(Cl)c2cc(Cl)cnc12` returned a melting point of 144 to 147 °C.

Turning to `CCCCCCNC(=O)Oc1ccc2oc3ccccc3c2c1`, the melting point lay in the range of 109 to 110 °C.

`CCSc1nc(N)c(C(N)=S)s1` registered a melting point of 180 to 183 °C.
